According to patent US20090299044A1 (priority 2006, published 2009):
Bridge positions count the residues as written; N and C are the ends. Square brackets hold non-standard residues; d marks the D form. Peptide text beside a SMILES is read from it. 1Nal = N[C@@H](Cc1cccc2ccccc12)C(=O)O

Tests used:
human Kv1.3 (CHO) = biological target: T1, human Kv1.3 (CHO) (Homo sapiens, UniProt P22001); assay: cell-based
T1 construct: expressed in transfected cells; host or cells: CHO

human Kv1.1 (HEK293) = biological target: T2, human Kv1.1 (HEK293) (Homo sapiens, UniProt Q09470); assay: cell-based
T2 construct: expressed in transfected cells; host or cells: HEK293
T2 sequence (Q09470 whole entry): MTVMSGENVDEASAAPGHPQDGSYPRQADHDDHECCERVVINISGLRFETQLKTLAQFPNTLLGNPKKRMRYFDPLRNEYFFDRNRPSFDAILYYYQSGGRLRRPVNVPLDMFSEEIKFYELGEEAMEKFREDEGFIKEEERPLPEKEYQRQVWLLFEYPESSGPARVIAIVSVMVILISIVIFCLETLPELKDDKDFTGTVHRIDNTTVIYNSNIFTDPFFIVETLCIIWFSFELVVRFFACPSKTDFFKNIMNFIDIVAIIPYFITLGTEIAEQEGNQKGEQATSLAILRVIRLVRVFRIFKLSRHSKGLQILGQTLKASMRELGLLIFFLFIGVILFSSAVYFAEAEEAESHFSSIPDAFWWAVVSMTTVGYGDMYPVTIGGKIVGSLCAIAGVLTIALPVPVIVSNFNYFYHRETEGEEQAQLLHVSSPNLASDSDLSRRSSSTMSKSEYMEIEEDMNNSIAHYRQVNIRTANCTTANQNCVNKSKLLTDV

T1 sequence (P22001 whole entry): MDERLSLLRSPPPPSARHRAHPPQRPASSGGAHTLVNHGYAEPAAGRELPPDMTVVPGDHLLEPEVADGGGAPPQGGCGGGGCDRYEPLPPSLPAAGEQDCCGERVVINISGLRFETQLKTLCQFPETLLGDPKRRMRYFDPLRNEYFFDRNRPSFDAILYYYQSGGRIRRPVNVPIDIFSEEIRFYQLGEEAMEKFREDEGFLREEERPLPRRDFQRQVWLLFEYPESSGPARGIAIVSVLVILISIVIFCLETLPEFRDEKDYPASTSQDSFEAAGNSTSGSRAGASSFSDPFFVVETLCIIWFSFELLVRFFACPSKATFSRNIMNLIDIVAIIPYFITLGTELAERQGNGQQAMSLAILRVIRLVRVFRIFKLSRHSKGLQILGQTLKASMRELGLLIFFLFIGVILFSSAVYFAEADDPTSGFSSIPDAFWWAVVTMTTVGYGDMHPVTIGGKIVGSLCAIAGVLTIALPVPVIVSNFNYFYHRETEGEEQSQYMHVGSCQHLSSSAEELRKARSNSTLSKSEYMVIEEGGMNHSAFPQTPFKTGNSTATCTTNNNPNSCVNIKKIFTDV

Structure (SMILES)	IC50 (human Kv1.3 (CHO))	IC50 (human Kv1.1 (HEK293))
CC[C@H](C)[C@@H]1NC(=O)[C@H](CCCCN)NC(=O)[C@@H](NC(=O)[C@H](CCCCN)NC(=O)[C@@H](NC(=O)[C@H](CC(N)=O)NC(=O)[C@@H](NC(=O)[C@@H](NC(=O)[C@@H](NC(=O)CN)C(C)C)[C@@H](C)CC)[C@@H](C)CC)C(C)C)CSSC[C@@H]2NC(=O)[C@H](CCCCN)NC(=O)CNC(=O)[C@H](Cc3ccccc3)NC(=O)[C@H](CCCNC(=N)N)NC(=O)[C@H](CCSC)NC(=O)CNC(=O)[C@H](CCC(=O)O)NC(=O)[C@H](CCCCN)NC(=O)[C@H](CCCCN)NC(=O)[C@@H]3CSSC[C@@H](C(=O)N[C@H](C(=O)N4CCC[C@H]4C(=O)N[C@@H](CCCCN)C(=O)O)[C@@H](C)O)NC(=O)[C@H](Cc4c[nH]cn4)NC(=O)[C@H](CSSC[C@H](NC(=O)[C@H](CCC(N)=O)NC(=O)[C@H](CCCNC(=N)N)NC(=O)[C@H](CO)NC1=O)C(=O)N[C@@H](CC(C)C)C(=O)N[C@@H](CCC(=O)O)C(=O)N1CCC[C@H]1C(=O)N3)NC(=O)[C@H](CCCCN)NC(=O)CNC(=O)[C@H](CC(N)=O)NC(=O)[C@H](CCSC)NC2=O [A21E] (H-GVIINVKCKISRQCLEPCKKEGMRFGKCMNGKCHCTPK-OH; disulfide 8-28, 14-33, 18-35)	0.00737 nM	< 0.00152 nM
CC[C@H](C)[C@@H]1NC(=O)[C@H](CCCCN)NC(=O)[C@@H](NC(=O)[C@H](CCCCN)NC(=O)[C@@H](NC(=O)[C@H](CC(N)=O)NC(=O)[C@@H](NC(=O)[C@@H](NC(=O)[C@@H](NC(=O)CN)C(C)C)[C@@H](C)CC)[C@@H](C)CC)C(C)C)CSSC[C@@H]2NC(=O)[C@H](CCCCN)NC(=O)CNC(=O)[C@H](Cc3ccccc3)NC(=O)[C@H](CCCNC(=N)N)NC(=O)[C@H](CCSC)NC(=O)CNC(=O)[C@H](CCCNC(=N)N)NC(=O)[C@H](CCCCN)NC(=O)[C@H](CCCCN)NC(=O)[C@@H]3CSSC[C@@H](C(=O)N[C@H](C(=O)N4CCC[C@H]4C(=O)N[C@@H](CCCCN)C(=O)O)[C@@H](C)O)NC(=O)[C@H](Cc4c[nH]cn4)NC(=O)[C@H](CSSC[C@H](NC(=O)[C@H](CCC(N)=O)NC(=O)[C@H](CCCNC(=N)N)NC(=O)[C@H](CO)NC1=O)C(=O)N[C@@H](CC(C)C)C(=O)N[C@@H](CCC(=O)O)C(=O)N1CCC[C@H]1C(=O)N3)NC(=O)[C@H](CCCCN)NC(=O)CNC(=O)[C@H](CC(N)=O)NC(=O)[C@H](CCSC)NC2=O [A21R] (H-GVIINVKCKISRQCLEPCKKRGMRFGKCMNGKCHCTPK-OH; disulfide 8-28, 14-33, 18-35)	0.0149 nM	0.00261 nM
CC[C@H](C)[C@@H]1NC(=O)[C@H](CCCCN)NC(=O)[C@@H](NC(=O)[C@H](CCCCN)NC(=O)[C@@H](NC(=O)[C@H](CC(N)=O)NC(=O)[C@@H](NC(=O)[C@@H](NC(=O)[C@@H](NC(=O)CN)C(C)C)[C@@H](C)CC)[C@@H](C)CC)C(C)C)CSSC[C@@H]2NC(=O)[C@H](CCCCN)NC(=O)CNC(=O)[C@H](Cc3ccccc3)NC(=O)[C@H](CCCNC(=N)N)NC(=O)[C@H](CCSC)NC(=O)CNC(=O)[C@H](C)NC(=O)[C@H](CCCCN)NC(=O)[C@H](CCCCN)NC(=O)[C@@H]3CSSC[C@@H](C(=O)N[C@H](C(=O)N4CCC[C@H]4C(=O)N[C@@H](CCCCN)C(=O)O)[C@@H](C)O)NC(=O)[C@H](Cc4c[nH]cn4)NC(=O)[C@H](CSSC[C@H](NC(=O)[C@H](CCC(N)=O)NC(=O)[C@H](CCCNC(=N)N)NC(=O)[C@H](CO)NC1=O)C(=O)N[C@@H](CC(C)C)C(=O)N[C@@H](C)C(=O)N1CCC[C@H]1C(=O)N3)NC(=O)[C@H](CCCCN)NC(=O)CNC(=O)[C@H](CC(N)=O)NC(=O)[C@H](CCSC)NC2=O [E16A] (H-GVIINVKCKISRQCLAPCKKAGMRFGKCMNGKCHCTPK-OH; disulfide 8-28, 14-33, 18-35)	0.0216 nM	0.00687 nM
CC[C@H](C)[C@@H]1NC(=O)[C@H](CCCCN)NC(=O)[C@@H](NC(=O)[C@H](CCCCN)NC(=O)[C@@H](NC(=O)[C@H](CC(N)=O)NC(=O)[C@@H](NC(=O)[C@@H](NC(=O)[C@@H](NC(=O)CN)C(C)C)[C@@H](C)CC)[C@@H](C)CC)C(C)C)CSSC[C@@H]2NC(=O)[C@H](CCCCN)NC(=O)CNC(=O)[C@H](Cc3ccccc3)NC(=O)[C@H](CCCNC(=N)N)NC(=O)[C@H](CCSC)NC(=O)CNC(=O)[C@H](C)NC(=O)[C@H](CCCCN)NC(=O)[C@H](CCCCN)NC(=O)[C@@H]3CSSC[C@@H](C(=O)N[C@H](C(=O)N4CCC[C@H]4C(=O)N[C@@H](CCCCN)C(=O)O)[C@@H](C)O)NC(=O)[C@H](Cc4c[nH]cn4)NC(=O)[C@H](CSSC[C@H](NC(=O)[C@H](CCC(N)=O)NC(=O)[C@H](CCCNC(=N)N)NC(=O)[C@H](CO)NC1=O)C(=O)N[C@@H](CC(C)C)C(=O)N[C@@H](Cc1cccc4ccccc14)C(=O)N1CCC[C@H]1C(=O)N3)NC(=O)[C@H](CCCCN)NC(=O)CNC(=O)[C@H](CC(N)=O)NC(=O)[C@H](CCSC)NC2=O [E16Nal] (H-GVIINVKCKISRQCL[1Nal]PCKKAGMRFGKCMNGKCHCTPK-OH; disulfide 8-28, 14-33, 18-35)	0.00958 nM	< 0.00152 nM
CC[C@H](C)[C@@H]1NC(=O)[C@H](CCCCN)NC(=O)[C@@H](NC(=O)[C@H](CCCCN)NC(=O)[C@@H](NC(=O)[C@H](CC(N)=O)NC(=O)[C@@H](NC(=O)[C@@H](NC(=O)[C@@H](NC(=O)CN)C(C)C)[C@@H](C)CC)[C@@H](C)CC)C(C)C)CSSC[C@@H]2NC(=O)[C@H](CCCCN)NC(=O)CNC(=O)[C@H](Cc3ccccc3)NC(=O)[C@H](CCCNC(=N)N)NC(=O)[C@H](CCSC)NC(=O)CNC(=O)[C@H](C)NC(=O)[C@H](CCCCN)NC(=O)[C@H](CCCCN)NC(=O)[C@@H]3CSSC[C@@H](C(=O)N[C@H](C(=O)N4CCC[C@H]4C(=O)N[C@@H](CCCCN)C(=O)O)[C@@H](C)O)NC(=O)[C@H](Cc4c[nH]cn4)NC(=O)[C@H](CSSC[C@H](NC(=O)[C@H](CCC(N)=O)NC(=O)[C@H](CCCNC(=N)N)NC(=O)[C@H](CO)NC1=O)C(=O)N[C@@H](CC(C)C)C(=O)N[C@@H](CCCNC(=N)N)C(=O)N1CCC[C@H]1C(=O)N3)NC(=O)[C@H](CCCCN)NC(=O)CNC(=O)[C@H](CC(N)=O)NC(=O)[C@H](CCSC)NC2=O [E16R] (H-GVIINVKCKISRQCLRPCKKAGMRFGKCMNGKCHCTPK-OH; disulfide 8-28, 14-33, 18-35)	0.0104 nM	< 0.00152 nM
CC[C@H](C)[C@@H]1NC(=O)[C@H](CCCCN)NC(=O)[C@@H](NC(=O)[C@H](CCCCN)NC(=O)[C@@H](NC(=O)[C@H](CC(N)=O)NC(=O)[C@@H](NC(=O)[C@@H](NC(=O)[C@@H](NC(=O)CN)C(C)C)[C@@H](C)CC)[C@@H](C)CC)C(C)C)CSSC[C@@H]2NC(=O)[C@H](CCCCN)NC(=O)CNC(=O)[C@H](C)NC(=O)[C@H](CCCNC(=N)N)NC(=O)[C@H](CCSC)NC(=O)CNC(=O)[C@H](C)NC(=O)[C@H](CCCCN)NC(=O)[C@H](CCCCN)NC(=O)[C@@H]3CSSC[C@@H](C(=O)N[C@H](C(=O)N4CCC[C@H]4C(=O)N[C@@H](CCCCN)C(=O)O)[C@@H](C)O)NC(=O)[C@H](Cc4c[nH]cn4)NC(=O)[C@H](CSSC[C@H](NC(=O)[C@H](CCC(N)=O)NC(=O)[C@H](CCCNC(=N)N)NC(=O)[C@H](CO)NC1=O)C(=O)N[C@@H](CC(C)C)C(=O)N[C@@H](CCC(=O)O)C(=O)N1CCC[C@H]1C(=O)N3)NC(=O)[C@H](CCCCN)NC(=O)CNC(=O)[C@H](CC(N)=O)NC(=O)[C@H](CCSC)NC2=O [F25A] (H-GVIINVKCKISRQCLEPCKKAGMRAGKCMNGKCHCTPK-OH; disulfide 8-28, 14-33, 18-35)	1.49 nM	0.0473 nM
CC[C@H](C)[C@@H]1NC(=O)[C@H](CCCCN)NC(=O)[C@@H](NC(=O)[C@H](CCCCN)NC(=O)[C@@H](NC(=O)[C@H](CC(N)=O)NC(=O)[C@@H](NC(=O)[C@@H](NC(=O)[C@@H](NC(=O)CN)C(C)C)[C@@H](C)CC)[C@@H](C)CC)C(C)C)CSSC[C@@H]2NC(=O)[C@H](CCCCN)NC(=O)CNC(=O)[C@H](CCC(=O)O)NC(=O)[C@H](CCCNC(=N)N)NC(=O)[C@H](CCSC)NC(=O)CNC(=O)[C@H](C)NC(=O)[C@H](CCCCN)NC(=O)[C@H](CCCCN)NC(=O)[C@@H]3CSSC[C@@H](C(=O)N[C@H](C(=O)N4CCC[C@H]4C(=O)N[C@@H](CCCCN)C(=O)O)[C@@H](C)O)NC(=O)[C@H](Cc4c[nH]cn4)NC(=O)[C@H](CSSC[C@H](NC(=O)[C@H](CCC(N)=O)NC(=O)[C@H](CCCNC(=N)N)NC(=O)[C@H](CO)NC1=O)C(=O)N[C@@H](CC(C)C)C(=O)N[C@@H](CCC(=O)O)C(=O)N1CCC[C@H]1C(=O)N3)NC(=O)[C@H](CCCCN)NC(=O)CNC(=O)[C@H](CC(N)=O)NC(=O)[C@H](CCSC)NC2=O [F25E] (H-GVIINVKCKISRQCLEPCKKAGMREGKCMNGKCHCTPK-OH; disulfide 8-28, 14-33, 18-35)	> 3.33 nM	> 3.33 nM
CC[C@H](C)[C@@H]1NC(=O)[C@H](CCCCN)NC(=O)[C@@H](NC(=O)[C@H](CCCCN)NC(=O)[C@@H](NC(=O)[C@H](CC(N)=O)NC(=O)[C@@H](NC(=O)[C@@H](NC(=O)[C@@H](NC(=O)CN)C(C)C)[C@@H](C)CC)[C@@H](C)CC)C(C)C)CSSC[C@@H]2NC(=O)[C@H](CCCCN)NC(=O)CNC(=O)[C@H](Cc3cccc4ccccc34)NC(=O)[C@H](CCCNC(=N)N)NC(=O)[C@H](CCSC)NC(=O)CNC(=O)[C@H](C)NC(=O)[C@H](CCCCN)NC(=O)[C@H](CCCCN)NC(=O)[C@@H]3CSSC[C@@H](C(=O)N[C@H](C(=O)N4CCC[C@H]4C(=O)N[C@@H](CCCCN)C(=O)O)[C@@H](C)O)NC(=O)[C@H](Cc4c[nH]cn4)NC(=O)[C@H](CSSC[C@H](NC(=O)[C@H](CCC(N)=O)NC(=O)[C@H](CCCNC(=N)N)NC(=O)[C@H](CO)NC1=O)C(=O)N[C@@H](CC(C)C)C(=O)N[C@@H](CCC(=O)O)C(=O)N1CCC[C@H]1C(=O)N3)NC(=O)[C@H](CCCCN)NC(=O)CNC(=O)[C@H](CC(N)=O)NC(=O)[C@H](CCSC)NC2=O [F25Nal] (H-GVIINVKCKISRQCLEPCKKAGMR[1Nal]GKCMNGKCHCTPK-OH; disulfide 8-28, 14-33, 18-35)	0.0286 nM	0.0517 nM
